Laboratory results reported in paper PMC5351967, “Blue-light induced accumulation of reactive oxygen species is a consequence of the Drosophila cryptochrome photocycle” (PLoS ONE, 2017).

Target: T1, DmCry (Drosophila melanogaster, UniProt O77059)
T1 construct: gene cry
Assay: UV-visible absorption spectroscopy of protein-bound flavin, photoreduction and dark reoxidation
Format: binding
Details: co-purified cofactor; 50 mM phosphate pH 7.5, 10 mM beta-mercaptoethanol, 21 °C; blue light

T1 sequence (O77059 whole entry): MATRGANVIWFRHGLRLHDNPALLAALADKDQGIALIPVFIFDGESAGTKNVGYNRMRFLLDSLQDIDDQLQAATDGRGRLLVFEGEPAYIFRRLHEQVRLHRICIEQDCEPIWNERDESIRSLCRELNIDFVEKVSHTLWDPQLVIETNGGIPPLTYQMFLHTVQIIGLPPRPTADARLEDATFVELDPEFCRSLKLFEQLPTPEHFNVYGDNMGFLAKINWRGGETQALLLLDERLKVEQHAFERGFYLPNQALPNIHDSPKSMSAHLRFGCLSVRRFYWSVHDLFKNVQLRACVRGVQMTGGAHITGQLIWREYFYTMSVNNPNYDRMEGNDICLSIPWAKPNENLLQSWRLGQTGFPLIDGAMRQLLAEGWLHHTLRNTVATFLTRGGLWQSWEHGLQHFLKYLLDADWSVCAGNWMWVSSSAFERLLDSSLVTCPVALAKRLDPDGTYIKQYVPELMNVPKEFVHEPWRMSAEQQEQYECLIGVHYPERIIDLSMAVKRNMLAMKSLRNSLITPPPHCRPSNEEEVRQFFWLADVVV

Structure (SMILES): Cc1cc2nc3c(=O)[nH]c(=O)nc-3n(C[C@H](O)[C@H](O)[C@H](O)COP(=O)(O)OP(=O)(O)OC[C@H]3O[C@@H](n4cnc5c(N)ncnc54)[C@H](O)[C@@H]3O)c2cc1C [FAD]
- UV-visible absorption spectroscopy of protein-bound flavin, photoreduction and d: Flavin reduction to the anionic radical (FAD^•-) redox form could then be observed
